Results taken from patent publication US20090252834A1, “Compositions comprising glucose anti-metabolites” (priority 2004, published 2009).

How the values were obtained:
[1] = system: rats; settings: cited from earlier work
[2] = in contrast with 2-deoxy-D-glucose; cited from earlier work
[3] = system: rats; settings: by injection, in rats; cited from earlier work
[4] = injected into a rat; cited from earlier work
[5] = system: rodents; settings: long-term; cited from earlier work
[6] = high doses; cited from earlier work
[7] = system: isolated rat hepatocytes; settings: cited from earlier work
[8] = rats, cited from earlier work
[9] = cited from earlier work
[10] = Pharmacokinetics of mannoheptulose, once daily in a nutritionally-balanced composition, adult Labrador Retrievers; format: in vivo, Labrador Retriever dogs
Description: The pharmacokinetics of mannoheptulose can be determined in six adult, male Labrador Retriever dogs fed a nutritionally-balanced composition providing mannoheptulose at levels of 0, 1 or 2 mg/kg of body weight of the dog. Mannoheptulose is provided as an enriched source of avocado extract in the 1 and 2 mg/kg diets. The mean age of the dogs is 4.2 years and the age ranges from 3.3 to 6.1 years. The average body weight of all dogs is 33 kg and the body weight ranges from 28 to 36 kg. Dogs are adapted for 14 days to a nutritionally-balanced control composition (Eukanuba Senior Maintenance Formula) containing no mannoheptulose, avocado extract or avocado meal (0 mg/kg mannoheptulose). The two compositions containing mannoheptulose are the nutritionally-balanced control composition formulated with avocado extract to provide a mannoheptulose dose of 1 or 2 mg/kg of body weight when fed to a dog. The amount of composition offered to the dogs is based on feeding guidelines for the control composition and the target weight range and body condition of the dogs. After 14 days, dogs are fed one of the three compositions for 9 days. On day 9, the dogs are fed their daily allotment of composition as a single meal at 0730. Dog 1 and dog 2 are fed the control composition containing 0 mg/kg mannoheptulose, dog 3 and dog 4 are fed the composition containing 1 mg/kg mannoheptulose, and dog 5 and dog 6 are fed the composition containing 2 mg/kg mannoheptulose. Pharmacokinetics of mannoheptulose following once daily administration of mannoheptulose in a nutritionally-balanced composition is determined by collecting serial blood samples (3 mL) from each dog on day 9 using a Vacutainer blood collection system and jugular venipuncture. Blood samples are collected at −30, 0, 30, 60, 90, 120, 240, 360, 480, 600, 720 and 1,440 minutes relative to each dog receiving their entire daily allotment of composition as a single meal. Plasma mannoheptulose concentrations are measured using high-performance liquid chromatography tandem mass spectrometry as described herein below.
A one-compartment model is used to calculate mannoheptulose pharmacokinetics based on plasma mannoheptulose levels following once daily oral administration of mannoheptulose in a nutritionally-balanced composition (PV(t)). The model is: PV(t)=dose/(a·BW)e^−kt where: a mannoheptulose pool size (dose/(enrichment at to)), BW=body weight, k=rate constant of elimination (In Et−1n E0)/−t, and t=time. Area under each plasma mannoheptulose curve is determined using a one-way, repeated measures analysis of variance (GraphPad Prism version 4.00 for Windows).
High performance liquid chromatography tandem mass spectrometry (HPLC/MS/MS) is utilized to determine the amount of mannoheptulose present in the plasma of adult dogs. D-mannoheptulose and its chemical analog internal standard (D7-glucose) are isolated from dog plasma by a protein precipitation procedure (described herein below) using a 96-well format. […] Detection and quantitation is by mass spectrometry (MS) operating under multiple reaction monitoring MS/MS conditions. Concentrations of D-mannoheptulose in dog plasma can be quantitated from approximately 20 to 5000 ng/mL. […] Specimen concentrations are determined by back-calculation using a weighted (1/x^2) linear regression of a calibration curve generated from prepared D-mannoheptulose calibration standards.

[11] = system: older Labrador Retrievers; test: ADL-Jump (jumping over hurdles) of older dogs; format: in vivo, Labrador Retriever dogs; settings: 2 mg/kg, across all four quarters
Description: (§1) A total of 39 older Labrador Retrievers are fed a nutritionally-balanced composition providing mannoheptulose at levels of 0 or 2 mg/kg of body weight of the dog. Average age of the dogs (12 neutered males, 27 spayed females) at the start of a 4-year study is 6.7 years with a range of 5.1 to 8.2 years of age for the youngest and oldest dog within the cohort, respectively. The 0 mg/kg composition is fed as a nutritionally-balanced control composition (Eukanuba Senior Maintenance Formula) and it contains no mannoheptulose, avocado extract or avocado meal. The 2 mg/kg composition is the nutritionally-balanced control composition formulated with avocado extract to provide mannoheptulose at a dose of 2 mg/kg body weight of the dog. The nutritionally-balanced composition containing 0 mg/kg mannoheptulose is referred to as Diet 1 within this Example. The nutritionally-balanced composition containing 2 mg/kg mannoheptulose is referred to as Diet 2 within this Example. […]
(§2) Shoulder height of each individual dog is measured using a tape measure and recorded. […]
(§3) The ADL-Table activity requires the dog to jump on to and down from the platform of four tables of graduated heights, starting with the lowest table height first. […] For both activities, dogs are scored for the number of attempts at each graduated height and the successful completion of each height. […]

[12] = Pharmacokinetics of mannoheptulose, twice daily in a nutritionally-balanced composition, older Labrador Retrievers; format: in vivo, Labrador Retriever dogs; settings: 2 mg/kg; for half-life: female, Labrador Retriever, dog, plasma, oral
Description: The pharmacokinetics of mannoheptulose can be determined in ten adult, female Labrador Retriever dogs fed a nutritionally-balanced composition providing mannoheptulose at levels of 0 or 2 mg/kg of body weight of the dog. Mannoheptulose is provided as avocado extract in the 2 mg/kg diet. The mean age of the dogs is 7.1 years and the age ranges from 5.3 to 8.4 years. Dogs are age-matched across the two composition groups. The average body weight of all dogs is 29 kg and ranges from 25 to 35 kg. The 0 mg/kg composition is fed as a nutritionally-balanced control composition (Eukanuba Senior Maintenance Formula) and it contains no mannoheptulose, avocado extract or avocado meal. The 2 mg/kg composition is the nutritionally-balanced control composition formulated to contain avocado extract to provide mannoheptulose at a dose of 2 mg/kg of body weight of the dog. The amount of composition offered to the dogs is based on feeding guidelines for the control composition and the target weight range and body condition of the dogs. Dogs are fed one-half their daily allotment of composition at 0730 and the remaining half at 1330. Dogs 1, 2, 3, 4 and 5 are fed the composition containing 2 mg/kg mannoheptulose and dogs 6, 7, 8, 9 and 10 are fed the composition containing 0 mg/kg mannoheptulose. Pharmacokinetics of mannoheptulose following twice daily administration of mannoheptulose in a nutritionally-balanced composition is determined by collecting serial blood samples (3 mL) from each dog using a Vacutainer blood collection system and jugular venipuncture. […] Plasma mannoheptulose concentrations are measured using high-performance liquid chromatography tandem mass spectrometry as described herein below.
A one-compartment model is used to calculate mannoheptulose pharmacokinetics based on plasma mannoheptulose levels following twice daily oral administration of mannoheptulose in a nutritionally-balanced composition (PV(t)). The model is: PV(t)=dose/(a·BW)e^−kt where: a=mannoheptulose pool size (dose/(enrichment at to)), BW=body weight, k=rate constant of elimination (In Et−1n E0)/−t, and t=time.
High performance liquid chromatography tandem mass spectrometry (HPLC/MS/MS) is utilized to determine the amount of mannoheptulose present in the plasma of adult dogs. D-mannoheptulose and its chemical analog internal standard (D7-glucose) are isolated from dog plasma by a protein precipitation procedure (described herein below) using a 96-well format. The analyte and internal standard are subjected to reverse-phase high performance liquid chromatographic (HPLC) analysis on a polymeric amino column (2.1×150 mm, 5-μm particles). Detection and quantitation is by mass spectrometry (MS) operating under multiple reaction monitoring MS/MS conditions. Concentrations of D-mannoheptulose in dog plasma can be quantitated from approximately 20 to 5000 ng/mL. The assay requires a 0.1 mL aliquot of dog plasma harvested from a Na2EDTA anti-coagulant blood collection tube. Specimen concentrations are determined by back-calculation using a weighted (1/x^2) linear regression of a calibration curve generated from prepared D-mannoheptulose calibration standards.

[13] = system: fruit flies and/or nematodes; test: Lifespan of fruit flies and/or nematodes fed mannoheptulose; format: in vivo
From the text: (§4) Both of these endpoints are closely related to altered glucose and/or carbohydrate metabolism, similar to that elicited by dietary caloric restriction.

[14] = system: older Labrador Retrievers; test: ADL-Table (jumping onto table platforms) of older dogs; format: in vivo, Labrador Retriever dogs; settings: 2 mg/kg, across all four quarters
Description: as §1, §2, §3

[15] = system: mice; test: Mice fed a diet containing mannoheptulose; format: in vivo
From the text: as §4

[16] = twice daily, after the afternoon meal
[17] = twice daily, after the morning meal

CO[C@@H]([C@H](O)[C@H](O)CO)[C@@H](O)C=O [3-O-methylglucose]
responses to administration compared with 2-deoxyglucose [1]: about seven times weaker
metabolism of the glucose analog [2]: not metabolized

O=C[C@H](O)[C@@H](O)[C@H](O)[C@H](S)CO [5-Thioglucose, 5-thio-D-glucose]
LD50 [3]: 14 g/kg
5-thioglucose excreted unchanged in urine [4]: 97%

O=CC[C@@H](O)[C@H](O)[C@H](O)CO [2-deoxy-D-glucose]
metabolic hallmarks of caloric restriction (reduced body temperature, weight loss, lower fasting insulin levels) [5]: can mimic some of the major metabolic hallmarks of caloric restriction
side effects and toxicity [6]: significant untoward side effects and toxicity have been observed

OC[C@H]1O[C@H](CO)[C@@H](O)[C@@H]1O [2,5-Anhydro-D-mannitol, 2,5-anhydro-D-mannitol]
glucose formation and utilization [7]: interfere in glucose formation and utilization

O=C(CO)[C@@H](O)[C@@H](O)[C@H](O)[C@H](O)CO [mannoheptulose]
injected mannoheptulose remained in the body ([8]; a day after the injection): 5%
injected mannoheptulose excreted unchanged ([8]; injection): 66%
injected mannoheptulose metabolized ([8]; injection): 29%
mannoheptulose ingested appearing in urine ([9]; after oral administration): About 5%
safety of oral administration ([9]; humans, doses of 10 grams, orally): safely administered
response of plasma mannoheptulose levels to dietary mannoheptulose levels ([10]; 0, 1, 2 mg/kg): dose-dependent manner
time for plasma mannoheptulose to return to non-detectable levels ([10]; after consumption of the single daily meal): ≤ 24 h
half-life ([10]; male, Labrador Retriever, dog, plasma, once daily oral, 2 mg/kg, mathematical modeling): 375 min
turnover time ([10]; once daily oral, 2 mg/kg, mathematical modeling): 9.0 h
order of plasma kinetics ([10]; once daily oral, 1 or 2 mg/kg): first order kinetics
percentage of older dogs successfully jumping heights vs composition devoid of mannoheptulose [11]: a greater percentage of older dogs are able to successfully jump all heights
half-life [12, 16]: 338 min
half-life [12, 17]: 325 min
order of plasma kinetics ([12]; twice daily oral): first order kinetics
return of plasma mannoheptulose to undetectable levels ([12]; twice daily): by the following morning
turnover time [12, 16]: 3.90 h
turnover time [12, 17]: 7.8 h
time to second peak in plasma mannoheptulose after afternoon meal ([12]; twice daily, afternoon meal): 4 h
time to peak plasma mannoheptulose levels after initial feeding ([12]; twice daily, morning meal): 4 h
lifespan extension [13]: ~50%
percentage of older dogs successfully jumping onto platforms vs composition devoid of mannoheptulose [14]: a greater percentage of older dogs can successfully jump onto platforms that are 70, 80, 90 and 100% of their shoulder height
body weight [15]: slightly reduced body weight
plasma insulin levels [15]: reduced plasma insulin levels
